Read-outs that look alike come from different tables or passages of the source.

This passage reports ED50 results from patent publication EP0061056A1, “5,6-Dimethylpyrrolo (2,3-b) pyridines, process for their preparation and their use as medicaments” (Troponwerke GmbH & Co. KG, priority 1981, dated 1982).

This test relates to Kaolinödem der Rattenpfote. In words: Kaolin-induced rat paw oedema (inhibition of inflammation). Particulars: kaolin oedema of the rat paw. It is filed as in vivo, Ratte. The protocol: Die tierexperimentelle Prüfung der erfindungsgemäßen Verbindungen ergab, daß ein Teil dieser Substanzen sedative und antikonvulsive Eigenschaften besitzt. Darüber hinaus führen sie auch zu einer Hemmung der Entzündung, gemessen an der Beeinflussen des Pfotenödems der Ratte nach Kaolininjektion.
Bei oraler Applikation zeigen die erfindungsgemäßen Verbindungen eine signifikante entzündungshemmende Wirkung am Kaolinödem der Rattenpfote nach Gaben von 25 mg/kg. Bei intramuskulärer Applikation zeigen die Verbindungen bereits bei Dosierung von 10 mg/kg eine deutliche Hemmung der Entzündung. Für die Verbindung des Beispiels 1 beträgt die DE 50 bei oraler Applikation 68 mg/kg und die DE50 bei intramuskulärer Applikation 0,9 mg/kg.

On to `Cc1c(C)n(-c2ccccc2)c2nccc(N)c12` [Beispiel 1, 4-Amino-5,6-dimethyl-7-phenyl-pyrrolo[2,3-b]-7-pyridin], for which the ED50 is, setting by setting: (im, intramuscular application, read-out: DE50 (the source's name)) 0.9 mg/kg; (oral application, read-out: DE 50 (the source's name)) 68 mg/kg.
